For one series, the system named is PC12 cells. Description: PAI-1 expression in PC12 cells treated with corticosterone (qPCR, western blot). The following applies: Cort 100 and 1000 nM, 3 h. It is filed as cell-based, rat. Here is the method:
Chemicals. […] Millipore (USA) provided the recombinant human BDNF (CAS Nb 218441-99-7, #GF029, 100 ng/side) and tPA inhibitor; stable recombinant mutant of human Type 1 Plasminogen Activator Inhibitor (PAI-1; CAS Nb: 140208-23-7, #528208, ranging from 30 to 240 ng/side) (16;18). The small-molecule inhibitor of PAI-1 activity Tiplaxtinin (PAI-039; CAS Nb: 393105-53-8, #1383, 5 ng/side) was provided by Axon MEDCHEM (The Netherlands).
Cell culture. PC12 cell line (ATCC CRL-1721) derived from a transplantable rat pheochromocytoma was used (14;16). […]
Quantitative PCR analysis. […] RNA was processed and analyzed using an adapted version of published methods (23). cDNA was synthesized from 2 µg of total RNA using RevertAid Premium Reverse Transcriptase (Fermentas, Thermo Fisher Scientific, USA) and primed with oligo-dT primers (Fermentas, Thermo Fisher Scientific, USA) and random primers (Fermentas, Thermo Fisher Scientific, USA). qPCR was perfomed using a LightCycler® 480 Real-Time PCR System (Roche, Meylan, France). qPCR reactions were done in duplicate for each sample, using transcript-specific primers, cDNA (4 ng) and LightCycler 480 SYBR Green I Master (Roche) in a final volume of 10 µl. The PCR data were exported and analyzed in a computer-based tool (Gene Expression Analysis Software Environment) developed at the Neurocentre Magendie (France). […]

The test system of another series is C57BL/6J mice. Briefly: Adaptive vs maladaptive (PTSD-like) fear memory, fear conditioning procedure. Format: in vivo. The source says:
Surgical procedure. Male C57BL/6J mice {n=20 in Experiment 1 (FIGS. 3a-d), n=75 in Experiment 2 (FIG. 4), n=40 in Experiment 3 (FIGS. 5a-d) and n=48 in Experiment 4 (FIGS. 5e-h)} 3-4 months old (Charles River Laboratory, France) were used. Mice were surgically-implanted bilaterally 1 mm above the dorsal hippocampus (A/P, -2 mm; M/L, ±1.3 mm; D/V, 0.9 mm; relative to dura and bregma) following to Franklin and Paxinos’s mouse brain atlas (25) then allowed to recover for 8 days before the behavioral experiments.
Adaptive vs maladaptive (PTSD-like) fear memory. […] In contrast, Cort-injected mice will display a maladaptive (PTSD-like) memory attested by an abnormally high fear response to the irrelevant tone (cue-based hypermnesia) together with a decreased conditioned fear to the conditioning context (contextual amnesia) (5). • Memory tests - After fear conditioning, each animal was returned to its home cage and 24 h later, all mice were submitted to two memory tests during which freezing behavior, defined as a lack of any movement except for respiratory-related movements (29), was measured and used as an index of conditioned fear.
Drug injections. Immediately after the acquisition of fear conditioning, mice were randomly divided into groups firstly according to first their systemic injection of Cort and secondly their specific intra-hippocampal infusion. […] Vehicle (NaCl 0.9%, n=8), 2. […] Vehicles (aCSF + NaCl 0.9%, n=15), 2. […] Vehicles (aCSF + NaCl 0.9%, n=8), 2. […] Vehicles (aCSF + DMSO, n=12), 2.
PAI-1 and BDNF were diluted in artificial CSF (aCSF) and Tiplaxtinin in 1.6 % dimethyl sulfoxide (DMSO) and then diluted in aCSF. Bilateral infusions of 0.3 µl/side were administered into the dorsal hippocampus immediately after acquisition of fear conditioning at a constant rate (0.1 µl/min).

In series [1] the test system is dorsal hippocampal slices. Description: Protein expression in dorsal hippocampal slices incubated with corticosterone (western blot). Format: cell-based, Sprague-Dawley rats. How it is done:
Briefly, adult male Sprague-Dawley rats (2-3 months old n=18, Charles River Laboratory, France) were used. Rats were then anesthetized with isoflurane and transcardially perfused with nearly frozen modified artificial cerebrospinal fluid (CSF) with 3 mM kynurenic acid. The modified CSF for perfusion contained: (in mM) 87 NaCl, 75 Sucrose, 25 Glucose, 5 KCl, 21 MgCl2, 0.5 CaCl2 and 1.25 NaH2PO4. After perfusion, the brains were quickly removed and sliced (300 µm) in the coronal plane using a vibratome (Campden Instruments, UK). Immediately after cutting, slices were stored for 40 min at 32° C. in CSF ((in mM): 130 NaCl, 11 Glucose, 2.5 KCl, 2.4 MgCl2, 1.2 CaCl2, 23 NaHCO3, 1.2 NaH2PO4), equilibrated with 95% O2 / 5% CO2 then stored at room temperature for the rest of the experiment. […] Dorsal hippocampi were isolated, and proteins were extracted as previously described (14;16).
Protein extraction from brain tissues and immunoblotting analysis. A detailed description of protein extraction and immunoblotting analysis has been reported previously (14-16;20;21). Briefly, protein sample extracts from PC12 cells and mouse and rat hippocampi were performed in RIPA buffer containing protease and phosphatase inhibitors (#P8340 and #P0044, Sigma, USA) before being subjected to immunoblotting experiments. […] Rabbit polyclonal anti-PAI-1 antibodies were from Lifespan Biosciences (LSBio#C81062, 1/1000, WA, USA) and Epitomics (#3917-1, 1/3000, CA, USA), anti-tPA (#T5600-05G; 1/5000) was from US Biologicals (MA, USA), anti-Erk1/2^MAPK (#06-182; 1/50000) was from Millipore (MA, USA), anti-Phospho-Erk1/2^MAPK (#9101S; 1/1000) was from CST (MA, USA). Rabbit monoclonal antibodies anti-Phospho-Erk1/2^MAPK (#4370; 1/5000) was from CST (MA, USA), anti-Phospho-TrkB (#2149-1; 1/5000) was from Epitomics (CA, USA), anti-TrkB (#610101; 1/2000) was from BD Biosciences (NJ, USA). Mouse monoclonal anti-Neuronal Class III β-Tubulin (TUJ1) (#MMS-435P; 1/20000) was from Eurogentec (Belgium), anti-α-tubulin (#N356, 1/50000) was from Amersham Life Sciences (Del, USA). CST provided secondary antibodies: anti-rabbit IgG, HRP-linked antibody (#7074, 1/5000) and anti-mouse IgG, HRP-linked antibody (#7076, 1/20000). In all experiments, βIII-tubulin or α-tubulin measures were used as a loading control. X-Ray films (Kodak, USA) were quantified by densitometry (optical density; OD) using a GS-800 scanner coupled with Quantity One software (Bio-Rad, CA, USA).

The next series deals with PAI-1 (Homo sapiens, UniProt P05121). The following applies: dual mechanism of action; cited from earlier work.
Chain of PAI-1 (P05121 24-402, species assumed): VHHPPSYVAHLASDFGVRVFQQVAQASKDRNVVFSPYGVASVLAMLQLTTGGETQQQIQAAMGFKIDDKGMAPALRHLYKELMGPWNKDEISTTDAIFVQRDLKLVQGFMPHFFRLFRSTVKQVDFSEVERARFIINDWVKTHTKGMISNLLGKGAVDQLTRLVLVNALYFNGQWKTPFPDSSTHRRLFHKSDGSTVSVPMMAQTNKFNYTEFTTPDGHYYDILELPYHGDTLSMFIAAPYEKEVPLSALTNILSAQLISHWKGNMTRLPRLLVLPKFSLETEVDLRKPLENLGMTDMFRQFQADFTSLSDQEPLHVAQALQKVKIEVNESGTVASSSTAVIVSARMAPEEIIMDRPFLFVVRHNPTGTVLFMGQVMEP
For series [2] the following is noted: cited from earlier work.
In the next series the test system is rats. The conditions noted are these: cited from earlier work.
For series [3], the system named is TGF-B1-induced lung fibrosis. The conditions noted are these: in vivo; cited from earlier work.
For the next series, the system named is nonhuman primates. The following applies: cited from earlier work.
For series [4] the following is noted: in vivo; cited from earlier work.

“Also recorded” adds a separate entry of the source.

Consider `C[C@]12C[C@H](O)[C@H]3[C@@H](CCC4=CC(=O)CC[C@@]43C)[C@@H]1CC[C@@H]2C(=O)CO` [Cort, corticosterone], for which the “expression of PAI-1 mRNA” value with PC12 cells (qPCR) is listed as “strongly increased”. Also, in the series on PC12 cells (western blot), the “expression of PAI-1 protein” value is reported as “strongly increased”. Besides, the PTSD-like memory impairments entry in the series with C57BL/6J mice (Cort 2 mg/kg i.p. immediately after conditioning) is “PTSD-like memory impairments appeared”. Besides, the “tPA, P-TrkB and P-Erk1/2MAPK proteins” value in [1] (Cort 10 nM, 1 h after treatment) is given as “increase”; in [1] (Cort 1000 nM, after 3 h treatment), “suppression of the increase”. For the same molecule, the PAI-1 protein result in series [1] (Cort 10 nM, 3 h after treatment) was “increase”; in series [1] (Cort 1000 nM, 1 h after treatment), “early increase”.

Regarding `CCCCCc1c(-c2ccc3cc(OCc4nnn[nH]4)ccc3c2)n(Cc2ccccc2)c2ccccc12` [PAI-749, 1-benzyl-3-pentyl-2[-(1H-tetrazol-5-ylmethoxy)naphthalene-2-yl]-1Hindole], the PAI-1 activity result at PAI-1 is on record as “neutralize PAI-1 activity”.

Regarding `O=C(CCCCC(=O)Nc1scc(-c2cccs2)c1C(=O)O)Nc1scc(-c2cccs2)c1C(=O)O` [TM5007], the oral pharmacokinetic profile result in [2] was “not ideal”.

Regarding `O=C(COCC(=O)N1CCN(C(c2ccccc2)c2ccccc2)CC1)Nc1ccc(Cl)cc1C(=O)[O-].[Na+]` [TM5275], the antithrombotic ability entry with rats and with nonhuman primates was “effective antithrombotic ability” each time. Besides, the oral pharmacokinetic profile entry in series [2] is given as “improved oral pharmacokinetic properties”. In addition, the TGF-B1-induced lung fibrosis result in [3] was “blocks”.

In the case of `O=C(O)C(=O)c1cn(Cc2ccccc2)c2ccc(-c3ccc(OC(F)(F)F)cc3)cc12` [Tiplaxtinin, 1H-indole-3-acetic acid, a-oxo-1-(phenylmethyl)-5-(4-trifluoromethoxyphenyl)], the “appearance of PTSD-like memory in Cort-treated animals” value with C57BL/6J mice (Tiplaxtinin 5 ng/side intra-hippocampal immediately after conditioning, Cort 2 mg/kg i.p., freezing tested 24 h later) was “prevented the appearance of PTSD-like memory; also recorded: normalizes traumatic memory”.

`CNCCC(Oc1ccc(C(F)(F)F)cc1)c1ccccc1` (stereo not drawn) [fluoxetine]: the “benefit in PTSD over placebo” value in series [4] is “small to modest benefit”.

In the case of `Fc1ccc([C@@H]2CCNC[C@H]2COc2ccc3c(c2)OCO3)cc1` [paroxetine], in series [4], the “benefit in PTSD over placebo” value is given as “small to modest benefit”.

For the molecule `COc1ccc(C(CN(C)C)C2(O)CCCCC2)cc1` (stereo not drawn) [venlafaxine], the “benefit in PTSD over placebo” value in [4] was “small to modest benefit”.

B1: mature BDNF: recombinant human BDNF, CAS 218441-99-7 (protein, UniProt P23560 19-247, looked up)
Neurotrophic factor BDNF …: APMKEANIRGQGGLAYPGVRTHGTLESVNGPKAGSRGLTSLADTFEHVIEELLDEDQKVRPNEENNKDADLYTSRVMLSSQVPLEPPLLFLLEEYKNYLDAANMSMRVRRHSDPARRGELSVCDSISEWVTAADKKTAVDMSGGTVTVLEKVPVSKGQLKQYFYETKCNPMGYTKEGCRGIDKRHWNSQCRTTQSYVRALTMDSKKRIGWRFIRIDTSCVCTLTIKRGR
Consider B1, for which the “reversal of the effect of PAI-1 on fear memory” value in the series on C57BL/6J mice (mature BDNF 100 ng/side concomitant with PAI-1 240 ng/side, intra-hippocampal) is reported as “completely reversed”.

The record behind these values is patent US20230305023A1, “METHODS OF TREATMENT AND DIAGNOSTIC OF PATHOLOGICAL CONDITIONS ASSOCIATED WITH INTENSE STRESS” (INSERM (INSTITUT NATIONAL DE LA SANTÉ ET DE LA RECHERCHE …, priority 2020, published 2023).
